According to US11299478B2, “2-cyanopyrimidin-4-yl carbamate or urea derivative or salt thereof, and pharmaceutical composition including same” (HANLIM PHARMACEUTICAL CO., LTD., priority 2018, dated 2022):

Columns and labels:
Type in all cases: biochemical
cathepsin S = cathepsin S (Homo sapiens, UniProt P25774); assay: Inhibitory activity assay against cathepsin S (enzyme assay); conditions: Z-Phe-Arg-AMC 70 μM, enzyme 3 nM, pH 6.5, 45 minutes
Method: In order to measure the enzyme activity of cathepsin S, a buffer solution (pH 6.5) consisting of 50 mM MES, 2.5 mM DTT, 1.0 mM EDTA, 0.001% bovine serum albumin (BSA), and 10% DMSO was prepared. The substrate, the test material, and the enzyme were mixed in the buffer solution in a predetermined concentration. The Z-Phe-Arg-AMC substrate was used in the final concentration of 70 μM. The test material was used in the final concentrations of 10.0 μM, 3.33 μM, 1.11 μM, 0.370 μM, 0.123 μM, 0.0412 μM, 0.0137 μM, 0.00457 μM, 0.00152 μM, and 0.000508 μM, respectively. The cathepsin S enzyme was used in the final concentration of 3 nM. The final volume of the enzyme reaction solution was 10 μL.
After reacting the mixture of substrate, test material, and enzyme for 45 minutes, the enzyme activity was measured with the EnVision (Perkin Elmer) microplate reader at an absorption wavelength of 340 nm and an emission wavelength of 460 nm. IC50 values were determined using 4-parameter logistic curve fit program of GraphPad Prism.

cathepsin B = cathepsin B (Homo sapiens, UniProt P07858); assay: Inhibitory activity assay against cathepsin B (enzyme assay); conditions: Z-Arg-Arg-AMC 40 μM, enzyme 1 nM, pH 6.0, 90 minutes
Method: In order to measure the enzyme activity of cathepsin B, a buffer solution (pH 6.0) consisting of 50 mM MES, 5 mM DTT, 2.5 mM EDTA, 0.005% Polysorbate 20, and 10% DMSO was prepared. The substrate, the test material, and the enzyme were mixed in the buffer solution in a predetermined concentration. The Z-Arg-Arg-AMC substrate was used in the final concentration of 40 μM. The test material was used in the final concentrations of 10.0 μM, 3.33 μM, 1.11 μM, 0.370 μM, 0.123 μM, 0.0412 μM, 0.0137 μM, 0.00457 μM, 0.00152 μM, and 0.000508 μM, respectively. The cathepsin B enzyme was used in the final concentration of 1 nM. The final volume of the enzyme reaction solution was 10 μL. After reacting the mixture of substrate, test material, and enzyme for 90 minutes, the enzyme activity was measured with the EnVision (Perkin Elmer) microplate reader at an absorption wavelength of 340 nm and an emission wavelength of 460 nm. IC50 values were determined using 4-parameter logistic curve fit program of GraphPad Prism.

cathepsin K = target: T1, cathepsin K (Homo sapiens, UniProt P43235); assay: Inhibitory activity assay against cathepsin K (enzyme assay); conditions: Z-Phe-Arg-AMC 10 μM, enzyme 1 nM, pH 5.5, 30 minutes
T1 sequence (P43235 115-329): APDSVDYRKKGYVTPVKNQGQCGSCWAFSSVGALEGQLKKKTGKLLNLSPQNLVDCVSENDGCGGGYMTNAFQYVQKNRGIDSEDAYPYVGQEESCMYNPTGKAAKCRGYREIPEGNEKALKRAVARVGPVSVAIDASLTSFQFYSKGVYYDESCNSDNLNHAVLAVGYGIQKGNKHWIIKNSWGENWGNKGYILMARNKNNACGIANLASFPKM
Method: In order to measure the enzyme activity of cathepsin K, a buffer solution (pH 5.5) consisting of 50 mM 2-(N-morpholino)ethanesulfonic acid (MES), 2 mM dithiothreitol (DTT), 2.5 mM ethylenediaminetetraacetic acid (EDTA), 0.01% Triton X-100, and 10% dimethyl sulfoxide (DMSO) was prepared. The substrate, the test material, and the enzyme were mixed in the buffer solution in a predetermined concentration. The Z-Phe-Arg-AMC substrate was used in the final concentration of 10 μM. The test material was used in the final concentrations of 10.0 μM, 3.33 μM, 1.11 μM, 0.370 μM, 0.123 μM, 0.0412 μM, 0.0137 μM, 0.00457 μM, 0.00152 μM, and 0.000508 μM, respectively. The cathepsin K enzyme was used in the final concentration of 1 nM. The final volume of the enzyme reaction solution was 10 μL. After reacting the mixture of substrate, test material, and enzyme for 30 minutes, the enzyme activity was measured with the Synergy Neo (Biotek) microplate reader at an absorption wavelength of 355 nm and an emission wavelength of 460 nm. IC50 values were determined using 4-parameter logistic curve fit program of GraphPad Prism.

cathepsin L = cathepsin L (Homo sapiens, UniProt P07711); assay: Inhibitory activity assay against cathepsin L (enzyme assay); conditions: Z-Phe-Arg-AMC 2 μM, enzyme 3 nM, pH 5.5, 30 minutes
Method: In order to measure the enzyme activity of cathepsin L, a buffer solution (pH 5.5) consisting of 50 mM MES, 2.5 mM DTT, 2.5 mM EDTA, 0.005% Polysorbate 20, and 10% DMSO was prepared. The substrate, the test material, and the enzyme were mixed in the buffer solution in a predetermined concentration. The Z-Phe-Arg-AMC substrate was used in the final concentration of 2 μM. The test material was used in the final concentrations of 10.0 μM, 3.33 μM, 1.11 μM, 0.370 μM, 0.123 μM, 0.0412 μM, 0.0137 μM, 0.00457 μM, 0.00152 μM, and 0.000508 μM, respectively. The cathepsin L enzyme was used in the final concentration of 3 nM. The final volume of the enzyme reaction solution was 10 μL. After reacting the mixture of substrate, test material, and enzyme for 30 minutes, the enzyme activity was measured with the EnVision (Perkin Elmer) microplate reader at an absorption wavelength of 340 nm and an emission wavelength of 460 nm. IC50 values were determined using 4-parameter logistic curve fit program of GraphPad Prism.

cathepsin L, sequence (P07711 114-333, species assumed): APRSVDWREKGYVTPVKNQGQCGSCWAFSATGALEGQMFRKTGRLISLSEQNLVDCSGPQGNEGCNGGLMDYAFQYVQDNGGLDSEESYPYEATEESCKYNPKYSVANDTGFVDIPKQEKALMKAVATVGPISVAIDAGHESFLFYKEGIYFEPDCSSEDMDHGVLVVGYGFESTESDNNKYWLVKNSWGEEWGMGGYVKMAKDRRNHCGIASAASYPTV
cathepsin S, sequence (P25774 115-331, species assumed): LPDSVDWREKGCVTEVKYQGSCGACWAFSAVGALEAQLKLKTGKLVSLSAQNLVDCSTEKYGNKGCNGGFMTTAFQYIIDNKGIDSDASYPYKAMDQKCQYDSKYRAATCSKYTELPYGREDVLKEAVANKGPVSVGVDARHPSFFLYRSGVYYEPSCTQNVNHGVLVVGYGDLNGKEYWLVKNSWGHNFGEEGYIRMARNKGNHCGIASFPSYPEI

Row | IC50 (cathepsin S) | IC50 (cathepsin B) | IC50 (cathepsin K) | IC50 (cathepsin L) | Compound
1 | > 10000 nM | > 10000 nM | 38.8 nM | 4170 nM | CC(NC(=O)NC1(c2ccnc(C#N)n2)CCCC1)c1ccccc1 (centres unmarked) [Example 51, 1-(1-(2-cyanopyrimidin-4-yl)cyclopentyl)-3-(1-phenylethyl)urea]
2 | > 10000 nM | > 10000 nM | 22.9 nM | > 10000 nM | N#Cc1nccc(C2(NC(=O)Nc3ccc(Br)cc3)CCCCC2)n1 [Example 110, 1-(4-bromophenyl)-3-(1-(2-cyanopyrimidin-4-yl)cyclohexyl)urea]
3 | > 10000 nM | > 10000 nM | 39.5 nM | > 10000 nM | CS(=O)(=O)c1ccc(-c2ccc(NC(=O)NC3(c4ccnc(C#N)n4)CCCCC3)cc2)cc1F [Example 170, 1-(1-(2-cyanopyrimidin-4-yl)cyclohexyl)-3-(3′-fluoro-4′-(methylsulfonyl)-[1,1′-biphenyl]-4-yl)urea]
4 | 8600 nM | > 10000 nM | 45.5 nM | 1620 nM | N#Cc1nccc(C2(NC(=O)OCc3cccc(F)c3)CCCCC2)n1 [Example 15, 3-fluorobenzyl (1-(2-cyanopyrimidin-4-yl)cyclohexyl)carbamate]
5 | > 10000 nM | > 10000 nM | 13.2 nM | 5970 nM | Cc1ccccc1CNC(=O)NC1(c2ccnc(C#N)n2)CCCC1 [Example 46, 1-(1-(2-cyanopyrimidin-4-yl)cyclopentyl)-3-(2-methylbenzyl)urea]
6 | 8320 nM | > 10000 nM | 60.8 nM | 1740 nM | N#Cc1nccc(C2(NC(=O)OCc3ccccc3F)CCCCC2)n1 [Example 18, 2-fluorobenzyl (1-(2-cyanopyrimidin-4-yl)cyclohexyl)carbamate]
7 | 9230 nM | > 10000 nM | 32.9 nM | 2010 nM | N#Cc1nccc(C2(NC(=O)OCc3ccccc3C(F)(F)F)CCCCC2)n1 [Example 20, 2-(trifluoromethyl)benzyl (1-(2-cyanopyrimidin-4-yl)cyclohexyl)carbamate]
8 | > 10000 nM | > 10000 nM | 2.3 nM | > 10000 nM | CC(C)(C)N1CCN(c2ccc(NC(=O)NC3(c4ccnc(C#N)n4)CCCCC3)cc2)CC1 [Example 143, 1-(4-(4-(tert-butyl)piperazin-1-yl)phenyl)-3-(1-(2-cyanopyrimidin-4-yl)cyclohexyl)urea]
9 | > 10000 nM | > 10000 nM | 18.8 nM | > 10000 nM | N#Cc1nccc(C2(NC(=O)OCc3ccc(Br)cc3)CCCCC2)n1 [Example 11, 4-bromobenzyl (1-(2-cyanopyrimidin-4-yl)cyclohexyl)carbamate]
10 | > 10000 nM | > 10000 nM | 19.9 nM | > 10000 nM | N#Cc1nccc(C2(NC(=O)OCc3ccc(Cl)cc3)CCCCC2)n1 [Example 23, 4-chlorobenzyl (1-(2-cyanopyrimidin-4-yl)cyclohexyl)carbamate]
11 | > 10000 nM | > 10000 nM | 101 nM | > 10000 nM | N#Cc1nccc(C2(NC(=O)NCc3ccccc3C(F)(F)F)CCCC2)n1 [Example 56, 1-(1-(2-cyanopyrimidin-4-yl)cyclopentyl)-3-(2-(trifluoromethyl)benzyl)urea]
12 | 7930 nM | > 10000 nM | 5.2 nM | > 10000 nM | COCCNC(=O)c1ccc(-c2ccc(NC(=O)NC3(c4ccnc(C#N)n4)CCCCC3)cc2)cc1 [Example 147, 4′-(3-(1-(2-cyanopyrimidin-4-yl)cyclohexyl)ureido)-N-(2-methoxyethyl)-[1,1′-biphenyl]-4-carboxamide]
13 | 1110 nM | > 10000 nM | 8 nM | > 10000 nM | CS(=O)(=O)c1ccc(-c2ccc(NC(=O)NC3(c4ccnc(C#N)n4)CCCCC3)cc2F)cc1 [Example 167, 1-(1-(2-cyanopyrimidin-4-yl)cyclohexyl)-3-(2-fluoro-4′-(methylsulfonyl)-[1,1′-biphenyl]-4-yl)urea]
14 | > 10000 nM | > 10000 nM | 462 nM | > 10000 nM | N#Cc1nccc(C2(NC(=O)NCc3ccc4c(c3)OCO4)CCCC2)n1 [Example 43, 1-(benzo[d][1,3]dioxol-5-ylmethyl)-3-(1-(2-cyanopyrimidin-4-yl)cyclopentyl)urea]
15 | > 10000 nM | > 10000 nM | 507 nM | 6390 nM | N#Cc1nccc(C2(NC(=O)OCc3cccc(Br)c3)CCCC2)n1 [Example 3, 3-bromobenzyl (1-(2-cyanopyrimidin-4-yl)cyclopentyl)carbamate]
16 | > 10000 nM | > 10000 nM | 83.8 nM | 2860 nM | COc1ccccc1COC(=O)NC1(c2ccnc(C#N)n2)CCCCC1 [Example 21, 2-methoxybenzyl (1-(2-cyanopyrimidin-4-yl)cyclohexyl)carbamate]
17 | > 10000 nM | > 10000 nM | 61.7 nM | 5950 nM | N#Cc1nccc(C2(NC(=O)OCc3cccc4ccccc34)CCCCC2)n1 [Example 26, naphthalen-1-ylmethyl (1-(2-cyanopyrimidin-4-yl)cyclohexyl)carbamate]
18 | > 10000 nM | > 10000 nM | 1.9 nM | > 10000 nM | CC(C)N1CCN(c2ccc(-c3ccc(CNC(=O)NC4(c5ccnc(C#N)n5)CCCCC4)cc3)cc2)CC1 [Example 181, 1-(1-(2-cyanopyrimidin-4-yl)cyclohexyl)-3-((4′-(4-isopropylpiperazin-1-yl)-[1,1′-biphenyl]-4-yl)methyl)urea]
19 | > 10000 nM | > 10000 nM | 28.2 nM | > 10000 nM | N#Cc1nccc(C2(NC(=O)Nc3ccc(F)c(C(F)(F)F)c3)CCOCC2)n1 [Example 85, 1-(4-(2-cyanopyrimidin-4-yl)tetrahydro-2H-pyran-4-yl)-3-(4-fluoro-3-(trifluoromethyl)phenyl)urea]

Row | Compound | IC50 (cathepsin S) | IC50 (cathepsin B) | IC50 (cathepsin K) | IC50 (cathepsin L)
20 | N#Cc1nccc(C2(NC(=O)OCc3ccccc3)CCCCC2)n1 [Example 10, Benzyl (1-(2-cyanopyrimidin-4-yl)cyclohexyl)carbamate] | 7010 nM | > 10000 nM | 5.6 nM | 1180 nM
